The numbers were not newly measured in patent US20040049352A1, “Designing modulators for glycosyltransferases” (priority 2000, published 2004), which cites them from elsewhere.

The structures appear in SMILES notation.

This series has as its target T1, GlcNAc-T II (Rattus norvegicus, UniProt Q09326).
T1 sequence (Q09326 1-442): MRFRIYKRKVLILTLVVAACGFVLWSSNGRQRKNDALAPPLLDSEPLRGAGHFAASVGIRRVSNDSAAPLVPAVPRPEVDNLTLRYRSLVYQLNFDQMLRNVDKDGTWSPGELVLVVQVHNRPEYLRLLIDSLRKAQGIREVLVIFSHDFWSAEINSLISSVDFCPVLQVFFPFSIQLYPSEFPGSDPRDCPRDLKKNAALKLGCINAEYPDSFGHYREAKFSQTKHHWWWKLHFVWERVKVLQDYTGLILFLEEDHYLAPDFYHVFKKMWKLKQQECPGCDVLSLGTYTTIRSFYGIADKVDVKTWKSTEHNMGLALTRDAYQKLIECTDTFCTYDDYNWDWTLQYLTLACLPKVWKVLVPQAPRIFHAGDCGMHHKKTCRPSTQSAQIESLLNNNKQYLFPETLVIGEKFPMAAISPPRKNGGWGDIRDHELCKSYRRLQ
The conditions noted are these: inhibition studies.
Regarding `CC(=O)N[C@@H]1[C@@H](O)[C@H](O)[C@@H](CO)O[C@@H]1O` [GlcNAc, 2-acetamido-2-deoxy-α-D-glucopyranose], the “binding to the enzyme GlcNAc-T II” value is recorded as “neither GlcNAc nor GlcNAc-α-l-phosphate binds”.
Turning to `CC(=O)N[C@H]1[C@@H](OP(=O)(O)O)O[C@H](CO)[C@@H](O)[C@@H]1O` [GlcNAc-α-l-phosphate], the “binding to the enzyme GlcNAc-T II” value is recorded as “neither GlcNAc nor GlcNAc-α-l-phosphate binds”.
In the case of `CC(=O)N[C@H]1[C@@H](OP(=O)(O)OP(=O)(O)OC[C@H]2O[C@@H](n3ccc(=O)[nH]c3=O)[C@H](O)[C@@H]2O)O[C@H](CO)[C@H](O)[C@@H]1O` [UDP-GalNAc], the “binding to the enzyme GlcNAc-T II” value was “do bind”.
